Test results: patent US5275708A, “Cetyltrimethylammonium bromide gel electrophoresis” (Thomas Jefferson University, priority 1992, dated 1994)

Columns and labels:
[1] = tested on: enzyme activities of various proteins; assay: Enzyme activities of detergent-treated samples after heating; format: biochemical; settings: detergent treated samples heated to 100° C. in the presence of β-mercaptoethanol
From the text: Native protein activity was retained after solubilization in CTAB. Enzyme activities of various proteins in CTAB with their activities when solubilized in SDS, or Tx-100 were compared. […] The relative effect of detergent solubilization on native activity varied from protein to protein and, therefore, must be determined empirically.

horseradish peroxidase = assay: Horseradish peroxidase activity after detergent solubilization; format: biochemical; settings: 0.5% detergent; compared to SDS; relative to Tx-100 (100%)
Protocol: Spectrophotometric Assays. Peroxidase activity was assayed at room temperature using a solution of 0.5 mg/ml diaminobenzidine in 10 mM sodium phosphate buffered 0.9% saline (pH 7.2), containing 0.1% hydrogen peroxide. Reactions were allowed to proceed for 5 minutes, and then were stopped by the addition of 10 mM sodium sulfide to 100 μM. Absorbance at 480 nm was used to determine the degree of product formation.

[2] = tested on: lactate dehydrogenase (LDH); assay: Lactate dehydrogenase activity in detergent extracts; format: biochemical, human; settings: 0.5% detergent; JEG-3 cell extracts; relative to Tx-100 (100%)
Protocol: (§1) FIG. 4 is a graphical depiction of the effect of detergent solubilization on enzyme activities. Enzyme activities were determined in the presence of 0.5% Tx-100, SDS, or CTAB as described in the Examples. The activities were expressed relative to that in Tx-100 solubilized samples (100%). […] Alkaline phosphatase and horseradish peroxidase were purchased from Sigma. Ca^2+ -ATPase activity was measured in microsomes prepared from day-17 chick chorioallantoic membrane, Oakley et al., Anal. Biochem., 105:361-363 (1980). NAD dependent isocitrate dehydrogenase (ICD) and lactate dehydrogenase (LDH) activities were measured in detergent extracts of JEG-3 human choriocarcinoma cells
(§2) Ca^2+ -ATPase activity was assayed by the method of Tuan and Knowles, J. Biol. Chem., 259:2754-2763 (1984), without further modification. Alkaline phosphatase, lactate dehydrogenase, and isocitrate dehydrogenase activities were measured using protocols supplied with their respective diagnostic kits.

Ca2+-ATPase = Ca2+-ATPase activity in detergent-solubilized chorioallantoic membrane microsomes; format: biochemical; settings: 0.5% detergent; day-17 chick CAM microsomes; relative to Tx-100 (100%)
Protocol: as §1, §2

[3] = tested on: NAD dependent isocitrate dehydrogenase (ICD); assay: NAD dependent isocitrate dehydrogenase activity in detergent extracts; format: biochemical, human; settings: 0.5% detergent; JEG-3 cell extracts; compared to SDS; relative to Tx-100 (100%)
Protocol: as §1, §2

Alkaline phosphatase = Alkaline phosphatase activity after detergent solubilization; format: biochemical; settings: 0.5% detergent; compared to SDS; relative to Tx-100 (100%)
Protocol: as §1, §2

[4] = α-NH2 group; cited from earlier work

Row | SMILES | Enzyme activity after heating [1] | Enzyme activity (HRP) in detergent (horseradish peroxidase) | Enzyme activity (LDH) in detergent [2] | Enzyme activity (Ca2+-ATPase) in detergent (Ca2+-ATPase) | Enzyme activity (ICD) in detergent [3] | Enzyme activity (AP) in detergent (Alkaline phosphatase) | pKa [4]
1 | CCCCCCCCCCCCCCCC[N+](C)(C)C.[Br-] [CTAB, Cetyltrimethylammonium bromide] | lost all activity | relatively high levels of enzyme activity | lack of activity | significantly affected | relatively high levels of enzyme activity | relatively high levels of enzyme activity | 
2 | CCCCCCCCCCCCOS(=O)(=O)[O-].[Na+] [SDS, sodium dodecylsulfate] | lost all activity |  |  |  |  |  | 
3 | NCCCC[C@H](N)C(=O)O [lysine] |  |  |  |  |  |  | ≈ 9.06
